Paper PMC6237300, “Influenza B viruses circulated during last 5 years in Mongolia” (PLoS ONE, 2018)

Molecular target: NA of influenza B clinical isolates (Influenza B virus, UniProt A0A1X9RX69)
Assay type: biochemical

CCC(CC)[C@H](NC(C)=O)[C@@H]1[C@H](O)[C@@H](C(=O)O)C[C@H]1N=C(N)N [Peramivir, peramivir]
IC50: 0.47 ± 0.4 nM
